Source: ChEMBL document CHEMBL4715814, “Design, synthesis and biological activity evaluation of novel 4-subtituted 2-naphthamide derivatives as AcrB inhibitors” (2018)
Calls of active or inactive are those of the source. The rule behind the calls is not given here.

Tests used:
[1] = tested on: Escherichia coli; assay: (§1) Antibacterial activity against Wild type Escherichia coli BW25113 assessed as inhibition of AcrB efflux pump by mesuring the glucose-induced nile red efflux at 500 uM preincubated with CCCP for 15 mins followed by compound addition after 15 mins nile red added and incubated for 3 hrs in shaker by fluorimetric analysis; assay type: functional, organism-based; details: time 195.0 min
[2] = tested on: Cell membrane; assay: Induction of outer membrane permeabilization in wild type Escherichia coli BW25113 assessed as increase in nitrocefin hydrolysis at 512 ug/ml measured for 30 mins in presence of CCCP by spectrophotometry analysis; assay type: subcellular; details: dose 512.0 µg/ml
[3] = tested on: Escherichia coli; assay: Potentiation of chloramphenicol-induced antibacterial activity against AcrB deficient Escherichia coli BW25113 assessed as chloramphenicol MIC at 256 ug/ml incubated for 18 hrs under aerobic condition by checkerboard titration assay (reference value: 2 ug/ml); assay type: functional; details: dose 256 µg/ml
[4] = tested on: Escherichia coli; assay: Potentiation of TPP-induced antibacterial activity against AcrB deficient Escherichia coli BW25113 assessed as TPP MIC at 256 ug/ml incubated for 18 hrs under aerobic condition by checkerboard titration assay (reference value: 256 ug/ml); assay type: functional; details: dose 256 µg/ml
[5] = tested on: Escherichia coli; assay: Potentiation of erythromycin-induced antibacterial activity against AcrB deficient Escherichia coli BW25113 assessed as erythromycin MIC at 256 ug/ml incubated for 18 hrs under aerobic condition by checkerboard titration assay (reference value: 32 ug/ml); assay type: functional; details: dose 256 µg/ml
[6] = tested on: Escherichia coli; assay: Potentiation of TPP-induced antibacterial activity against wild type Escherichia coli BW25113 assessed as TPP MIC at 256 ug/ml incubated for 18 hrs under aerobic condition by checkerboard titration assay (reference value: 1024 ug/ml); assay type: functional; details: dose 256 µg/ml
[7] = tested on: Escherichia coli; assay: Potentiation of TPP-induced antibacterial activity against wild type Escherichia coli BW25113 assessed as TPP MIC at 128 ug/ml incubated for 18 hrs under aerobic condition by checkerboard titration assay (reference value: 1024 ug/ml); assay type: functional; details: dose 128 µg/ml
[8] = tested on: Escherichia coli; assay: Potentiation of chloramphenicol-induced antibacterial activity against wild type Escherichia coli BW25113 assessed as chloramphenicol MIC at 256 ug/ml incubated for 18 hrs under aerobic condition by checkerboard titration assay (reference value: 16 ug/ml); assay type: functional; details: dose 256 µg/ml
[9] = tested on: Escherichia coli; assay: Potentiation of chloramphenicol-induced antibacterial activity against wild type Escherichia coli BW25113 assessed as chloramphenicol MIC at 128 ug/ml incubated for 18 hrs under aerobic condition by checkerboard titration assay (reference value: 16 ug/ml); assay type: functional; details: dose 128 µg/ml
[10] = tested on: Escherichia coli; assay: Potentiation of rifampicin-induced antibacterial activity against wild type Escherichia coli BW25113 assessed as rifampicin MIC at 128 ug/ml incubated for 18 hrs under aerobic condition by checkerboard titration assay (reference value: 16 ug/ml); assay type: functional; details: dose 128 µg/ml
[11] = tested on: Escherichia coli; assay: Potentiation of rifampicin-induced antibacterial activity against wild type Escherichia coli BW25113 assessed as rifampicin MIC at 256 ug/ml incubated for 18 hrs under aerobic condition by checkerboard titration assay (reference value: 16 ug/ml); assay type: functional; details: dose 256 µg/ml
[12] = tested on: Cell membrane; assay: Disruption of inner membrane potential in wild type Escherichia coli BW25113 at 512 ug/ml preincubated for 10 mins followed by glucose stimulation and CCCP addition by DiOC2 probe based fluorimetric analysis; assay type: subcellular; details: dose 512.0 µg/ml
[13] = tested on: Escherichia coli; assay: Potentiation of erythromycin-induced antibacterial activity against wild type Escherichia coli BW25113 assessed as erythromycin MIC at 256 ug/ml incubated for 18 hrs under aerobic condition by checkerboard titration assay (reference value: 128 ug/ml); assay type: functional; details: dose 256 µg/ml
[14] = tested on: Escherichia coli; assay: Potentiation of erythromycin-induced antibacterial activity against wild type Escherichia coli BW25113 assessed as erythromycin MIC at 128 ug/ml incubated for 18 hrs under aerobic condition by checkerboard titration assay (reference value: 128 ug/ml); assay type: functional; details: dose 128 µg/ml
[15] = tested on: Escherichia coli; assay: Potentiation of TPP-induced antibacterial activity against AcrB deficient Escherichia coli BW25113 assessed as TPP MIC at 512 ug/ml incubated for 18 hrs under aerobic condition by checkerboard titration assay (reference value: 256 ug/ml); assay type: functional; details: dose 512 µg/ml
[16] = tested on: Escherichia coli; assay: Potentiation of erythromycin-induced antibacterial activity against AcrB deficient Escherichia coli BW25113 assessed as erythromycin MIC at 512 ug/ml incubated for 18 hrs under aerobic condition by checkerboard titration assay (reference value: 32 ug/ml); assay type: functional; details: dose 512 µg/ml
[17] = tested on: Escherichia coli; assay: Potentiation of TPP-induced antibacterial activity against wild type Escherichia coli BW25113 assessed as TPP MIC at 512 ug/ml incubated for 18 hrs under aerobic condition by checkerboard titration assay (reference value: 1024 ug/ml); assay type: functional; details: dose 512 µg/ml
[18] = tested on: Escherichia coli; assay: Potentiation of chloramphenicol-induced antibacterial activity against wild type Escherichia coli BW25113 assessed as chloramphenicol MIC at 512 ug/ml incubated for 18 hrs under aerobic condition by checkerboard titration assay (reference value: 16 ug/ml); assay type: functional; details: dose 512 µg/ml
[19] = tested on: Escherichia coli; assay: Potentiation of erythromycin-induced antibacterial activity against wild type Escherichia coli BW25113 assessed as erythromycin MIC at 512 ug/ml incubated for 18 hrs under aerobic condition by checkerboard titration assay (reference value: 128 ug/ml); assay type: functional; details: dose 512 µg/ml
[20] = tested on: Escherichia coli; assay: Potentiation of chloramphenicol-induced antibacterial activity against wild type Escherichia coli BW25113 assessed as fold reduction in chloramphenicol MIC at 128 ug/ml incubated for 18 hrs under aerobic condition by checkerboard titration assay relative to chloramphenicol MIC alone; assay type: functional; details: dose 128 µg/ml
[21] = tested on: Escherichia coli; assay: Potentiation of TPP-induced antibacterial activity against AcrB deficient Escherichia coli BW25113 assessed as TPP MIC at 128 ug/ml incubated for 18 hrs under aerobic condition by checkerboard titration assay (reference value: 256 ug/ml); assay type: functional; details: dose 128 µg/ml
[22] = tested on: Escherichia coli; assay: Potentiation of chloramphenicol-induced antibacterial activity against AcrB deficient Escherichia coli BW25113 assessed as chloramphenicol MIC at 128 ug/ml incubated for 18 hrs under aerobic condition by checkerboard titration assay (reference value: 2 ug/ml); assay type: functional; details: dose 128 µg/ml
[23] = tested on: Escherichia coli; assay: Potentiation of erythromycin-induced antibacterial activity against AcrB deficient Escherichia coli BW25113 assessed as erythromycin MIC at 128 ug/ml incubated for 18 hrs under aerobic condition by checkerboard titration assay (reference value: 32 ug/ml); assay type: functional; details: dose 128 µg/ml
[24] = tested on: Escherichia coli; assay: Potentiation of erythromycin-induced antibacterial activity against wild type Escherichia coli BW25113 assessed as fold reduction in erythromycin MIC at 128 ug/ml incubated for 18 hrs under aerobic condition by checkerboard titration assay relative to erythromycin MIC alone; assay type: functional; details: dose 128 µg/ml
[25] = tested on: Escherichia coli; assay: Potentiation of chloramphenicol-induced antibacterial activity against wild type Escherichia coli BW25113 assessed as fold reduction in chloramphenicol MIC at 256 ug/ml incubated for 18 hrs under aerobic condition by checkerboard titration assay relative to chloramphenicol MIC alone; assay type: functional; details: dose 256 µg/ml
[26] = tested on: Escherichia coli; assay: as §1, with “200” for “500”; assay type: functional, organism-based; details: time 195.0 min

SMILES	Activity [2]	MIC [3]	MIC [4]	MIC [5]	MIC [6]	MIC [7]	MIC [8]	MIC [9]	MIC [10]	MIC [11]	Activity [12]	MIC [13]	MIC [14]	Activity [1]	also measured
CCCNC(=O)c1cc(OCCC(C)C)c2ccccc2c1	inactive	1 µg/mL	256 µg/mL	16 µg/mL	1020 µg/mL	1020 µg/mL	4 µg/mL	16 µg/mL	16 µg/mL	4 µg/mL		16 µg/mL	32 µg/mL		fold change (FC) [20]: 4; MIC [21]: 256 µg/mL; MIC [22]: 2 µg/mL; MIC [23]: 32 µg/mL; fold change (FC) [24]: 4
C#CCNC(=O)c1cc(OCCC(C)C)c2ccccc2c1		2 µg/mL	256 µg/mL	32 µg/mL	256 µg/mL	1020 µg/mL	2 µg/mL	8 µg/mL	16 µg/mL	16 µg/mL	Active	128 µg/mL	128 µg/mL	inactive	fold change (FC) [25]: 8; MIC [21]: 256 µg/mL; MIC [22]: 2 µg/mL; MIC [23]: 32 µg/mL
NC(=O)c1cc(OCCN2CCN(c3ccccc3)CC2)c2ccccc2c1	inactive	2 µg/mL	256 µg/mL	32 µg/mL	512 µg/mL	1020 µg/mL	2 µg/mL	8 µg/mL	16 µg/mL	16 µg/mL	inactive	128 µg/mL	128 µg/mL		fold change (FC) [25]: 8; Activity [26]: Active

More lines, main results first:

Activity [2]	MIC [3]	MIC [4]	MIC [5]	MIC [6]	MIC [7]	MIC [8]	MIC [9]	MIC [10]	MIC [11]	Activity [12]	MIC [13]	MIC [14]	SMILES	Activity [1]	also measured
inactive	2 µg/mL	256 µg/mL	32 µg/mL	1020 µg/mL	1020 µg/mL	4 µg/mL	8 µg/mL	16 µg/mL	16 µg/mL	inactive	32 µg/mL	64 µg/mL	CC(C)CCOc1cc(C(=O)Nc2ccccc2C(F)(F)F)cc2ccccc12	Active	
				1020 µg/mL		16 µg/mL			16 µg/mL		128 µg/mL		O=C(NCc1ccccc1)c1cc(OCc2ccccc2)c2ccccc2c1		MIC [15]: 256 µg/mL; MIC [16]: 32 µg/mL; MIC [17]: 1020 µg/mL; MIC [18]: 16 µg/mL; MIC [19]: 64 µg/mL
Active	2 µg/mL	256 µg/mL	32 µg/mL	1020 µg/mL	1020 µg/mL	4 µg/mL	8 µg/mL	16 µg/mL	16 µg/mL	Active	128 µg/mL	128 µg/mL	NC(=O)c1cc(OCCOc2ccccc2N)c2ccccc2c1	Active	
Active	2 µg/mL		32 µg/mL	1020 µg/mL	1020 µg/mL	4 µg/mL	8 µg/mL	16 µg/mL	4 µg/mL		128 µg/mL	128 µg/mL	COc1ccc(CNC(=O)c2cc(OCc3ccccc3)c3ccccc3c2)cc1		Activity [26]: Active
